Assay results published in ChEMBL document CHEMBL3784957, “Patterns of biofilm structure and formation kinetics among Acinetobacter baumannii clinical isolates with different antibiotic resistance profiles” (2016).
In brackets after ≈: the same amount, converted by molar mass.

Legend:
Assay type in all cases: functional
Acinetobacter baumannii [1] = test: Antimicrobial activity against Acinetobacter baumannii isolate 52 by broth microdilution assay
Acinetobacter baumannii [2] = test: Antimicrobial activity against Acinetobacter baumannii isolate 12 by broth microdilution assay
Acinetobacter baumannii [3] = test: Antimicrobial activity against Acinetobacter baumannii isolate 30 by broth microdilution assay
Acinetobacter baumannii [4] = test: Antimicrobial activity against Acinetobacter baumannii isolate 45 by broth microdilution assay
Acinetobacter baumannii [5] = test: Antimicrobial activity against Acinetobacter baumannii isolate 26 by broth microdilution assay
Acinetobacter baumannii [6] = test: Antimicrobial activity against Acinetobacter baumannii isolate 38 by broth microdilution assay
Acinetobacter baumannii [7] = test: Antimicrobial activity against Acinetobacter baumannii isolate 35 by broth microdilution assay
Acinetobacter baumannii [8] = test: Antimicrobial activity against Acinetobacter baumannii isolate 15 by broth microdilution assay
Acinetobacter baumannii [9] = test: Antimicrobial activity against Acinetobacter baumannii isolate 20 by broth microdilution assay
Acinetobacter baumannii [10] = test: Antimicrobial activity against Acinetobacter baumannii isolate 3 by broth microdilution assay
Acinetobacter baumannii [11] = test: Antimicrobial activity against Acinetobacter baumannii isolate 9 by broth microdilution assay
Acinetobacter baumannii [12] = test: Antimicrobial activity against Acinetobacter baumannii isolate 59 by broth microdilution assay

Row | Molecule | MIC (Acinetobacter baumannii [1]) | MIC (Acinetobacter baumannii [2]) | MIC (Acinetobacter baumannii [3]) | MIC (Acinetobacter baumannii [4]) | MIC (Acinetobacter baumannii [5]) | MIC (Acinetobacter baumannii [6]) | MIC (Acinetobacter baumannii [7]) | MIC (Acinetobacter baumannii [8]) | MIC (Acinetobacter baumannii [9]) | MIC (Acinetobacter baumannii [10]) | MIC (Acinetobacter baumannii [11]) | MIC (Acinetobacter baumannii [12])
1 | NCC[C@H](O)C(=O)N[C@@H]1C[C@H](N)[C@@H](O[C@H]2O[C@H](CN)[C@@H](O)[C@H](O)[C@H]2O)[C@H](O)[C@H]1O[C@H]1O[C@H](CO)[C@@H](O)[C@H](N)[C@H]1O [AMIKACIN] | ≤ 2 mg/L | 8 mg/L (≈ 13.7 µM) | 4 mg/L (≈ 6.83 µM) | ≤ 2 mg/L | ≤ 2 mg/L | ≤ 2 mg/L | ≤ 2 mg/L | 16 mg/L (≈ 27.3 µM) | > 32 mg/L | ≤ 2 mg/L | > 32 mg/L | ≤ 2 mg/L
2 | CO/N=C(\C(=O)N[C@@H]1C(=O)N2C(C(=O)[O-])=C(C[N+]3(C)CCCC3)CS[C@H]12)c1csc(N)n1 [CEFEPIME] | > 32 mg/L | 32 mg/L (≈ 66.6 µM) | 16 mg/L (≈ 33.3 µM) | 8 mg/L (≈ 16.6 µM) | 16 mg/L (≈ 33.3 µM) | 2 mg/L (≈ 4.16 µM) | 8 mg/L (≈ 16.6 µM) | > 32 mg/L | > 32 mg/L | 16 mg/L (≈ 33.3 µM) | 32 mg/L (≈ 66.6 µM) | 2 mg/L (≈ 4.16 µM)
3 | CC(C)(O/N=C(\C(=O)N[C@@H]1C(=O)N2C(C(=O)[O-])=C(C[n+]3ccccc3)CS[C@H]12)c1csc(N)n1)C(=O)O [CEFTAZIDIME] | > 32 mg/L | 16 mg/L (≈ 29.3 µM) | 16 mg/L (≈ 29.3 µM) | > 32 mg/L | > 32 mg/L | 4 mg/L (≈ 7.32 µM) | > 16 mg/L | > 32 mg/L | > 32 mg/L | > 32 mg/L | > 32 mg/L | 2 mg/L (≈ 3.66 µM)
4 | O=C(O)c1cn(C2CC2)c2cc(N3CCNCC3)c(F)cc2c1=O [CIPROFLOXACIN] | > 2 mg/L | > 2 mg/L | > 2 mg/L | > 2 mg/L | > 2 mg/L | ≤ 0.25 mg/L | > 2 mg/L | > 2 mg/L | > 2 mg/L | > 2 mg/L | > 2 mg/L | ≤ 0.25 mg/L
5 | C[C@@H](O)[C@H]1C(=O)N2C(C(=O)O)=C(SCCNC=N)C[C@H]12 [IMIPENEM ANHYDROUS] | > 8 mg/L | > 8 mg/L | 2 mg/L (≈ 6.68 µM) | > 8 mg/L | ≤ 1 mg/L | ≤ 1 mg/L | > 8 mg/L | > 8 mg/L | > 8 mg/L | > 8 mg/L | > 8 mg/L | ≤ 1 mg/L
6 | C[C@H]1COc2c(N3CCN(C)CC3)c(F)cc3c(=O)c(C(=O)O)cn1c23.C[C@H]1COc2c(N3CCN(C)CC3)c(F)cc3c(=O)c(C(=O)O)cn1c23.O [LEVOFLOXACIN] | > 4 mg/L | > 4 mg/L | > 4 mg/L | > 4 mg/L | > 4 mg/L | ≤ 0.12 mg/L | > 4 mg/L | > 4 mg/L | > 4 mg/L | > 4 mg/L | > 4 mg/L | ≤ 0.12 mg/L
7 | C[C@@H](O)[C@H]1C(=O)N2C(C(=O)O)=C(S[C@@H]3CN[C@H](C(=O)N(C)C)C3)[C@H](C)[C@H]12 [MEROPENEM] | > 8 mg/L | > 8 mg/L | 2 mg/L (≈ 5.22 µM) | 8 mg/L (≈ 20.9 µM) | 1 mg/L (≈ 2.61 µM) | ≤ 0.25 mg/L | 8 mg/L (≈ 20.9 µM) | > 8 mg/L | > 8 mg/L | > 8 mg/L | > 8 mg/L | 1 mg/L (≈ 2.61 µM)
8 | CN(C)c1ccc(O)c2c1C[C@H]1C[C@H]3[C@H](N(C)C)C(O)=C(C(N)=O)C(=O)[C@@]3(O)C(O)=C1C2=O [MINOCYCLINE] | ≤ 1 mg/L | ≤ 1 mg/L | ≤ 1 mg/L | 2 mg/L (≈ 4.37 µM) | 2 mg/L (≈ 4.37 µM) | ≤ 1 mg/L | ≤ 1 mg/L | ≤ 1 mg/L | 8 mg/L (≈ 17.5 µM) | 2 mg/L (≈ 4.37 µM) | 8 mg/L (≈ 17.5 µM) | ≤ 1 mg/L
9 | CCN1CCN(C(=O)N[C@@H](C(=O)N[C@@H]2C(=O)N3[C@@H]2SC(C)(C)[C@@H]3C(=O)O)c2ccccc2)C(=O)C1=O [PIPERACILLIN] | > 64 mg/L | > 64 mg/L | > 64 mg/L | > 64 mg/L | > 64 mg/L | ≤ 8 mg/L | > 64 mg/L | > 64 mg/L | > 64 mg/L | > 64 mg/L | > 64 mg/L | ≤ 8 mg/L
10 | CC1(C)S[C@@H]2[C@H](NC(=O)[C@H](C(=O)O)c3ccsc3)C(=O)N2[C@H]1C(=O)O [TICARCILLIN] | > 64 mg/L | 64 mg/L (≈ 166 µM) | > 64 mg/L | > 64 mg/L | 32 mg/L (≈ 83.2 µM) | ≤ 8 mg/L | > 64 mg/L | > 64 mg/L | > 64 mg/L | > 64 mg/L | > 64 mg/L | ≤ 8 mg/L
11 | NC[C@H]1O[C@H](O[C@H]2[C@H](O)[C@@H](O[C@H]3O[C@H](CO)[C@@H](O)[C@H](N)[C@H]3O)[C@H](N)C[C@@H]2N)[C@H](N)C[C@@H]1O [TOBRAMYCIN] | ≤ 1 mg/L | > 8 mg/L | 8 mg/L (≈ 17.1 µM) | 8 mg/L (≈ 17.1 µM) | ≤ 1 mg/L | > 8 mg/L | > 8 mg/L | > 8 mg/L | > 8 mg/L | ≤ 1 mg/L | > 8 mg/L | ≤ 1 mg/L
12 | COLISTIN | < 0.5 mg/L | 16 mg/L | < 0.5 mg/L | 8 mg/L | < 0.5 mg/L | < 0.5 mg/L | < 0.5 mg/L | < 0.5 mg/L | < 0.5 mg/L | < 0.5 mg/L | < 0.5 mg/L | < 0.5 mg/L
13 | GENTAMICIN | 4 mg/L | > 8 mg/L | > 8 mg/L | > 8 mg/L | < 1 mg/L | < 1 mg/L | > 8 mg/L | > 8 mg/L | > 8 mg/L | < 1 mg/L | > 8 mg/L | < 1 mg/L
